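Each compound was tested at five concentrations against cells in 96-well plates for 48 hours. At the GI50, growth is halved.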 The source made the active and inactive calls. No stated cut-off is given here; in the data, active = GI50 up to about 1.1 µM and inactive = higher.
Legend:
Test in all cases: inhibition of tumour cell growth, NCI panel, 48 h
SF-268 = system: SF-268
RPMI-8226 = system: RPMI-8226
SK-MEL-2 = system: SK-MEL-2
UO-31 = system: UO-31
HOP-62 = system: HOP-62
RXF 393 = system: RXF 393
A549 = system: A549
SNB-19 = system: SNB-19
LOX IMVI = system: LOX IMVI
NCI-H460 = system: NCI-H460
MDA-N = system: MDA-N
SK-MEL-5 = system: SK-MEL-5
Hs-578T = system: Hs-578T
K562 = system: K562
Malme-3M = system: Malme-3M
SR = system: SR
KM12 = system: KM12
NCI/ADR-RES = system: NCI/ADR-RES
UACC-62 = system: UACC-62
MCF7 = system: MCF7
SF-295 = system: SF-295
BT-549 = system: BT-549
SK-MEL-28 = system: SK-MEL-28
HL-60 = system: HL-60
PC-3 = system: PC-3
CCRF-CEM = system: CCRF-CEM
TK-10 = system: TK-10
ACHN = system: ACHN
HOP-92 = system: HOP-92
SN12C = system: SN12C
SK-OV-3 = system: SK-OV-3
COLO 205 = system: COLO 205
SW-620 = system: SW-620
SNB-75 = system: SNB-75
HCT-116 = system: HCT-116
MDA-MB-231 = system: MDA-MB-231
M14 = system: M14
MOLT-4 = system: MOLT-4
OVCAR-8 = system: OVCAR-8
HCT-15 = system: HCT-15
DU-145 = system: DU-145
UACC-257 = system: UACC-257
IGROV-1 = system: IGROV-1
786-0 = system: 786-0
NCI-H23 = system: NCI-H23
OVCAR-4 = system: OVCAR-4
U-251 = system: U-251
T47D = system: T47D
SF-539 = system: SF-539
NCI-H522 = system: NCI-H522
NCI-H226 = system: NCI-H226
MDA-MB-435 = system: MDA-MB-435
CAKI-1 = system: CAKI-1
OVCAR-5 = system: OVCAR-5
HT-29 = system: HT-29
A498 = system: A498
OVCAR-3 = system: OVCAR-3

## Cc1ccc(S(=O)(=O)NC(=O)NC(CCCCNC(=N)N)C(=O)O)cc1 (stereo not given)
SF-268
  GI50: > 100 µM (inactive)
RPMI-8226
  GI50: > 100 µM (inactive)
SK-MEL-2
  GI50: > 100 µM (inactive)
UO-31
  GI50: > 100 µM (inactive)
HOP-62
  GI50: > 100 µM (inactive)
RXF 393
  GI50: > 100 µM (inactive)
A549
  GI50: > 100 µM (inactive)
SNB-19
  GI50: > 100 µM (inactive)
LOX IMVI
  GI50: > 100 µM (inactive)
NCI-H460
  GI50: > 100 µM (inactive)
MDA-N
  GI50: > 100 µM (inactive)
SK-MEL-5
  GI50: > 100 µM (inactive)
Hs-578T
  GI50: > 100 µM (inactive)
K562
  GI50: > 100 µM (inactive)
Malme-3M
  GI50: > 100 µM (inactive)
SR
  GI50: > 100 µM (inactive)
KM12
  GI50: > 100 µM (inactive)
NCI/ADR-RES
  GI50: > 100 µM (inactive)
UACC-62
  GI50: > 100 µM (inactive)
MCF7
  GI50: > 100 µM (inactive)
SF-295
  GI50: > 100 µM (inactive)
BT-549
  GI50: > 100 µM (inactive)
SK-MEL-28
  GI50: > 100 µM (inactive)
HL-60
  GI50: > 100 µM (inactive)
PC-3
  GI50: > 100 µM (inactive)
CCRF-CEM
  GI50: > 100 µM (inactive)
TK-10
  GI50: > 100 µM (inactive)
ACHN
  GI50: > 100 µM (inactive)
HOP-92
  GI50: > 100 µM (inactive)
SN12C
  GI50: > 100 µM (inactive)
SK-OV-3
  GI50: > 100 µM (inactive)
COLO 205
  GI50: > 100 µM (inactive)
SW-620
  GI50: > 100 µM (inactive)
SNB-75
  GI50: > 100 µM (inactive)
HCT-116
  GI50: > 100 µM (inactive)
MDA-MB-231
  GI50: > 100 µM (inactive)
M14
  GI50: > 100 µM (inactive)
MOLT-4
  GI50: > 100 µM (inactive)
OVCAR-8
  GI50: > 100 µM (inactive)
HCT-15
  GI50: > 100 µM
DU-145
  GI50: > 100 µM (inactive)
UACC-257
  GI50: > 100 µM (inactive)
IGROV-1
  GI50: > 100 µM (inactive)
786-0
  GI50: > 100 µM (inactive)
NCI-H23
  GI50: > 100 µM (inactive)
OVCAR-4
  GI50: > 100 µM (inactive)
U-251
  GI50: > 100 µM (inactive)
T47D
  GI50: > 100 µM (inactive)
SF-539
  GI50: > 100 µM (inactive)
NCI-H522
  GI50: > 100 µM (inactive)

## OC1c2ccccc2C(O)C2OC12 (stereo not given)
NCI-H226
  GI50: 78.5 µM (inactive)
SF-268
  GI50: > 100 µM (inactive)
RPMI-8226
  GI50: > 100 µM (inactive)
SK-MEL-2
  GI50: > 100 µM (inactive)
UO-31
  GI50: > 100 µM (inactive)
HOP-62
  GI50: > 100 µM (inactive)
RXF 393
  GI50: > 100 µM (inactive)
A549
  GI50: > 100 µM (inactive)
MDA-MB-435
  GI50: > 100 µM (inactive)
SNB-19
  GI50: > 100 µM (inactive)
LOX IMVI
  GI50: > 100 µM (inactive)
CAKI-1
  GI50: > 100 µM (inactive)
NCI-H460
  GI50: > 100 µM (inactive)
MDA-N
  GI50: > 100 µM (inactive)
SK-MEL-5
  GI50: > 100 µM (inactive)
K562
  GI50: > 100 µM (inactive)
Malme-3M
  GI50: > 100 µM (inactive)
SR
  GI50: > 100 µM (inactive)
KM12
  GI50: > 100 µM (inactive)
NCI/ADR-RES
  GI50: > 100 µM (inactive)
UACC-62
  GI50: > 100 µM (inactive)
MCF7
  GI50: > 100 µM (inactive)
SF-295
  GI50: > 100 µM (inactive)
BT-549
  GI50: > 100 µM (inactive)
SK-MEL-28
  GI50: > 100 µM (inactive)
HL-60
  GI50: > 100 µM (inactive)
PC-3
  GI50: > 100 µM (inactive)
CCRF-CEM
  GI50: > 100 µM (inactive)
TK-10
  GI50: > 100 µM (inactive)
ACHN
  GI50: > 100 µM (inactive)
OVCAR-5
  GI50: > 100 µM (inactive)
HOP-92
  GI50: > 100 µM (inactive)
SN12C
  GI50: > 100 µM (inactive)
SK-OV-3
  GI50: > 100 µM (inactive)
COLO 205
  GI50: > 100 µM (inactive)
SW-620
  GI50: > 100 µM (inactive)
HCT-116
  GI50: > 100 µM (inactive)
MDA-MB-231
  GI50: > 100 µM (inactive)
M14
  GI50: > 100 µM (inactive)
MOLT-4
  GI50: > 100 µM (inactive)
OVCAR-8
  GI50: > 100 µM (inactive)
HCT-15
  GI50: > 100 µM
DU-145
  GI50: > 100 µM (inactive)
UACC-257
  GI50: > 100 µM (inactive)
HT-29
  GI50: > 100 µM (inactive)
IGROV-1
  GI50: > 100 µM (inactive)
786-0
  GI50: > 100 µM (inactive)
NCI-H23
  GI50: > 100 µM (inactive)
A498
  GI50: > 100 µM (inactive)
OVCAR-4
  GI50: > 100 µM (inactive)
U-251
  GI50: > 100 µM (inactive)
T47D
  GI50: > 100 µM (inactive)
SF-539
  GI50: > 100 µM (inactive)
NCI-H522
  GI50: > 100 µM (inactive)
OVCAR-3
  GI50: > 100 µM (inactive)
